Source: patent US4940730A, “Angiogenesis enhancer” (Takeda Chemical Industries, Ltd., priority 1987, dated 1990)
Where a name gives a salt, the structure may show the parent alone.

Experiments:
dorsal air-sack = test: Mouse dorsal air-sack method; assay type: in vivo, ICR mice; set-up: key to blood vessel elongation action: +, ++; blood vessel elongation action positive; +, ++; blood vessel elongation action positive; -: blood vessel elongation action negative; conditions: ten days later; for blood vessel elongation action: 1 mg test sample enveloped in Elvax-40
Experimental: Experimental work was conducted in accordance with the method of Yoshii et al. [Igaku no ayumi, 122 (No. 10), p. 890 (1982)]. More specifically, ICR mice (9-week old, males) were anesthetized, and the hair at the dorsal site was shaved with clippers. The site was sterilized with alcohol, and an injection needle was inserted at the site located at a distance of 1 cm from the tail side. Through the needle, about 20 ml of air was introduced. Then, the air in the air-sack (on the tail side) was drawn out. Test samples enveloped in Elvax®-40 were inserted into both, left and right, sides (at one of the both sides, only Elvax®-40 as the control). The incised site was closed, and, ten days later, the site was incised again and the state of elongation of blood vessel was observed. The test samples enveloped were erucamide, lauramide and erucic acid, and the results compared with one another.

cornea = test: Rat cornea test; assay type: in vivo, Wister rats; conditions: after two weeks; for elongation of blood vessels: rat cornea
Text: Namely, Wister rats (14-week old, male) were anesthetized, then pockets (about 2×3 mm in size) were provided in the cornea. […] The test samples enveloped were erucamide, lauramide and erucic acid, and, as the control, Elvax®-40 in which nothing was enveloped was used.

[1] = system: hen's chlorioallantoic membrane; test: CAM (Chorio Allantoic Membrane) assay; assay type: in vivo; conditions: for Positive rate of CAM assay: average neovascularization score (++=10, +=7, °=3, -=0), 3 days on membrane; for ED50: amount of drug which gave the numerical value 5 (positive rate) in CAM assay
Experimental: CAM (Chorio Allantoic Membrane) assay was conducted on various compounds of the present invention. The technique of the CAM assay was that modified somewhat on Auerbach's method [Developmental Biology, 41, 391 (1974)]. More specifically, hen's fertile eggs were incubated for three days at 37° C. (Napco carbon dioxide incubator-6300 was employed, CO2 :0% H2 O saturated). Polypropylene-made discs (6 mm. diameter) were spotted with a chloroform:ethanol (1:4 by volume) solution of each compound so that the concentration may be 0, 0.25, 0.64, 1.6, 4, 10 and 25 ug, respectively. The test materials were air-dried in a clean bench, which were then placed quietly on hen's chlorioallantoic membrane, followed by incubation at 37° C. for further three days. Then, the vascularization state was observed. In the tables, the positive rates were calculated on the following basis. Namely, degrees of neovascularization were determined as ++ for very strong, + for strong, ° for weak and - for negative, and they were numerized as 10, 7, 3 and 0, respectively. The average numerical value in each of the concentrations of the respective samples was made as positive rate. Further, the amount of the drug which gave the numerical value 5 in each sample was shown as ED50 value (ug/disc).

[2] = amount of sample 0.64 μg per disc
[3] = amount of sample 1.6 μg per disc
[4] = amount of sample 10 μg per disc
[5] = amount of sample 25 μg per disc
[6] = 30 μg test material in Elvax-40 gel in corneal pocket

CCCCCCCCCCCC(N)=O [Lauramide, reference compound]
blood vessel elongation action (dorsal air-sack): - | Action of elongation of blood vessel (cornea; 60 μg test material in Elvax-40 gel in corneal pocket): - | Positive rate of CAM assay [1, 2]: 0.3 | Positive rate of CAM assay [1, 3]: 0.7 | Positive rate of CAM assay ([1]; amount of sample 4 μg per disc): 0 | Positive rate of CAM assay [1, 4]: 0 | Positive rate of CAM assay [1, 5]: 0.3

CCCCCCCC/C=C\CCCCCCCCCCCC(N)=O [Erucamide]
blood vessel elongation action (dorsal air-sack): ++ | blood vessel elongation (dorsal air-sack; mouse dorsal air-sack): strong action of blood vessel elongation | Action of elongation of blood vessel (cornea; [6]): ++ | elongation of blood vessels (cornea): strong elongation action | ED50 [1]: 2.13 ug/disc | Positive rate of CAM assay [1, 2]: 1.4 | Positive rate of CAM assay [1, 3]: 3.4 | Positive rate of CAM assay ([1]; amount of sample 4 μg per disc): 9.4 | Positive rate of CAM assay [1, 4]: 10 | Positive rate of CAM assay [1, 5]: 10

CCCCCCCC/C=C\CCCCCCCCCCCC(=O)Nc1cccc(C(=O)O)c1 [m-aminobenzoic acid, N-ercoyl-3-aminobenzoic acid]
ED50 [1]: 1.28 ug/disc | Positive rate of CAM assay [1, 2]: 2.0 | Positive rate of CAM assay [1, 3]: 6.0 | Positive rate of CAM assay ([1]; amount of sample 4 μg per disc): 7.4 | Positive rate of CAM assay [1, 4]: 10 | Positive rate of CAM assay [1, 5]: 10

CCCCCCCC/C=C\CCCCCCCCCCCC(=O)O [Erucic acid]
Action of elongation of blood vessel (cornea; [6]): ++ | elongation of blood vessels (cornea): strong elongation action | ED50 [1]: 4.69 ug/disc | Positive rate of CAM assay [1, 2]: 1.4 | Positive rate of CAM assay [1, 3]: 2.8 | Positive rate of CAM assay ([1]; amount of sample 4 μg per disc): 4 | Positive rate of CAM assay [1, 4]: 8.2 | Positive rate of CAM assay [1, 5]: 9.4

CCCCCCCCCCCCCCCCCC(N)=O [Stearamide]
ED50 [1]: 2.63 ug/disc | Positive rate of CAM assay [1, 2]: 0 | Positive rate of CAM assay [1, 3]: 2 | Positive rate of CAM assay ([1]; amount of sample 4 μg per disc): 7.6 | Positive rate of CAM assay [1, 4]: 7.7 | Positive rate of CAM assay [1, 5]: 6.9

CCCCCCCC/C=C\CCCCCCCCCCCCN [1-Amino-13-docosene.HCl]
ED50 [1]: 0.94 ug/disc | Positive rate of CAM assay [1, 2]: 3.4 | Positive rate of CAM assay [1, 3]: 7.0 | Positive rate of CAM assay ([1]; amount of sample 4 μg per disc): 8.8 | Positive rate of CAM assay [1, 4]: 10 | Positive rate of CAM assay [1, 5]: > 10

CCCCCCCC/C=C\CCCCCCCC(=O)O [Oleic acid]
ED50 [1]: 13.7 ug/disc | Positive rate of CAM assay [1, 2]: 0 | Positive rate of CAM assay [1, 3]: 0.8 | Positive rate of CAM assay ([1]; amount of sample 4 μg per disc): 2.5 | Positive rate of CAM assay [1, 4]: 4 | Positive rate of CAM assay [1, 5]: 7

CCCCCCCC/C=C\CCCCCCCCCCCC(=O)NC [N-methyl, N-methyl erucamide]
ED50 [1]: 2.90 ug/disc | Positive rate of CAM assay [1, 2]: 0.8 | Positive rate of CAM assay [1, 3]: 2.3 | Positive rate of CAM assay ([1]; amount of sample 4 μg per disc): 7.8 | Positive rate of CAM assay [1, 4]: 10 | Positive rate of CAM assay [1, 5]: 10

CCCCCCCCCCCCCCCCCC(=O)O [Stearic acid]
ED50 [1]: 7.14 ug/disc | Positive rate of CAM assay [1, 2]: 0 | Positive rate of CAM assay [1, 3]: 0 | Positive rate of CAM assay ([1]; amount of sample 4 μg per disc): 1.8 | Positive rate of CAM assay [1, 4]: 6.8 | Positive rate of CAM assay [1, 5]: 9.4

C=CCCCCCCCCCCCCCCCCCCCC [1-Docosene]
ED50 [1]: 5.46 ug/disc | Positive rate of CAM assay [1, 2]: 0 | Positive rate of CAM assay [1, 3]: 0 | Positive rate of CAM assay ([1]; amount of sample 4 μg per disc): 2.5 | Positive rate of CAM assay [1, 4]: 10 | Positive rate of CAM assay [1, 5]: 9.3

CCCCCCCC/C=C\CCCCCCCCCCCC(=O)Nc1ccc(Cl)cc1C(=O)O [2-NH2-4-Cl-BzCO2 H, N-erucoyl-2-amino-5-chlorobenzoic acid]
ED50 [1]: 2.70 ug/disc | Positive rate of CAM assay [1, 2]: 2.6 | Positive rate of CAM assay [1, 3]: 4.2 | Positive rate of CAM assay ([1]; amount of sample 4 μg per disc): 5.6 | Positive rate of CAM assay [1, 4]: 8.0 | Positive rate of CAM assay [1, 5]: 10

CCCCCCCCC(O)C(O)CCCCCCCCCCCC(N)=O (stereo not shown) [Erucamide, diOH, 13,14-dihydroxydocosanamide]
ED50 [1]: 5.62 ug/disc | Positive rate of CAM assay [1, 2]: 0 | Positive rate of CAM assay [1, 3]: 2.0 | Positive rate of CAM assay ([1]; amount of sample 4 μg per disc): 3.8 | Positive rate of CAM assay [1, 4]: 7.0 | Positive rate of CAM assay [1, 5]: 9.4
